Measured values from patent US20210189643A1 (VF Jeanswear LP, priority 2017, published 2021).

Test: Hydrolysis of modified indigo compound to indigo
Type: physicochemical
Conditions: under hydrolyzing conditions
Method: In some embodiments, the substrate is contacted with a hydrolyzing agent, the hydrolyzing agent being capable of reacting with the modified indigo compound contained within the substrate to convert the modified indigo compound into indigo.
The hydrolysis is performed using any chemical compound or condition that is capable of converting the dye compound to indigo. In some embodiments, the hydrolysis is performed in aqueous compositions which contain a hydrolyzing agent. In other embodiments, the hydrolyzing agent may be selected by one skilled in the art and may include, without limitation, a base, heat, steam, or a combination thereof.

- conversion to indigo by hydrolysis: hydrolyzes to indigo
SMILES: O=C1/C(=C2/C(=O)c3ccccc3N2C(=O)c2ccncc2)N(C(=O)c2ccncc2)c2ccccc21 [Compound 37]
